target: T1, androgen receptor (AR) (Homo sapiens, UniProt P10275); assay: Degradation of androgen receptor (AR) protein in VCaP cells by Western blot; assay type: cell-based; conditions: percentage of degraded AR at 100 nM, VCaP cells, 16 h
T1 sequence (P10275 1-920): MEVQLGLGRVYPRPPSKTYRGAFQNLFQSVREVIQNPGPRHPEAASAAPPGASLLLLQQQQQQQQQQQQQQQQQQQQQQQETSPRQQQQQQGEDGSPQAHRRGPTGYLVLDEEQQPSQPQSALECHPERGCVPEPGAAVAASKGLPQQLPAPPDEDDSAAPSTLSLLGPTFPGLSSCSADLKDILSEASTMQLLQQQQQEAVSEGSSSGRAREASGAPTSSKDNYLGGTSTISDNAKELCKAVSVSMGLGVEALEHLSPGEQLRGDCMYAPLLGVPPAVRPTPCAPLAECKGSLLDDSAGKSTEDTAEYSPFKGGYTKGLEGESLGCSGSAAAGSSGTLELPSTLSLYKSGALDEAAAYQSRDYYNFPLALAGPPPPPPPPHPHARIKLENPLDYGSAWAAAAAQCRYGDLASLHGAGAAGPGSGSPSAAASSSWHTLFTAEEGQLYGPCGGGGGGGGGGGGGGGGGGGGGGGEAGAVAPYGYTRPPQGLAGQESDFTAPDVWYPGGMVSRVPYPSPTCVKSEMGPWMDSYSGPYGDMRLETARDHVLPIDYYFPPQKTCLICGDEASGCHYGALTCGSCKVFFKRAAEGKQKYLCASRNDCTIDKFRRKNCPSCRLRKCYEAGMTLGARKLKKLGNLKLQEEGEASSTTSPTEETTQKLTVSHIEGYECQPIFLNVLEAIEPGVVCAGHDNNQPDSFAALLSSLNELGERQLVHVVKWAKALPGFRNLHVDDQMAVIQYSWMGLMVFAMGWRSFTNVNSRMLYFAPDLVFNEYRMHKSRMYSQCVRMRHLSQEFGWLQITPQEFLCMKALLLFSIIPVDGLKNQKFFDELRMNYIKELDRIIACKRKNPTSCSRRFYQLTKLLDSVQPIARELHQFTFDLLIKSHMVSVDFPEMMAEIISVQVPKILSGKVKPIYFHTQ
Experimental: Determination of the Degradation Activity of the Compound on Androgen Receptor (AR) Protein by Western Blot
1) VCaP cells were subcultured in cell culture media, and then the cells in good growth condition were seeded in a 12-well plate at 1 ml/well (5×10^5 cells/well), and cultured overnight in a 37° C., 5% CO2 cell incubator. 2) The test compound was prepared into a 10 mM stock solution with dimethyl sulfoxide (DMSO). Prior to use, the solution was diluted 3 times with DMSO. […] of the diluted compound solution was added to the cell culture well (ensuring that the DMSO concentration in the culture system was 0.1%), and two wells were set for each concentration. The plate was gently shaken to mix. In addition, the experiment included negative control wells (containing equal amount of DMSO) and positive control wells. 3) After culturing 16 h. the cells were lysed with RIPA cell lysate, and the protein was extracted. The protein concentration was measured with BCA kit. 5-fold concentrated protein loading buffer was added, and after heated at 100° C. for 5 min. the sample was stored at −20° C. 4) for each well, 30 μg of protein was loaded on polyacrylamide gel for electrophoresis. 5) The protein was transferred from polyacrylamide gel to PVDF membrane, and then 5% skim milk was added to close for 1 h at room temperature. The first antibody (Androgen Receptor (D6F11) XP Rabbit mAb and Anti-β-Actin Rabbit mAb) was added and incubated overnight at 4° C. The membrane was washed with TBST solution three times. 10 min for each time. The secondary antibody (horseradish peroxidase labeled goat […]) was added and incubated at room temperature for 2 h, and then the membrane was washed with TBST solution three times. 10 min for each time.
Finally, ECL chemiluminescence solution was added, and then photos were taken with automatic chemiluminescence instrument to collect pictures for analysis.

inhibition at 0.1 µM	SMILES	% degradation
50 to 79%	CC1(C)[C@H](NC(=O)c2ccc(N3CCC(NC4CCN(c5cc6c(cc5F)C(=O)N(C5CCC(=O)NC5=O)C6=O)CC4)CC3)nn2)C(C)(C)[C@H]1Oc1ccc(C#N)c(Cl)c1 (stereo partly drawn) [Compound 291, N-((1r,3r)-3-(3-chloro-4-cyanophenoxy)-2,2,4,4-tetramethylcyclobutyl)-6-(4-((1-(2-(2,6-dioxopiperidin-3-yl)-6-fluoro-1,3-dioxoisoindoline)piperidine-4-yl)amino)piperidin-1-yl)pyridazine-3-formamide]	
< 25%	N#Cc1ccc(O[C@H]2C[C@H]3C[C@@H](NC(=O)c4cnc(N5CCC(CN6CCN(c7ccc8c(c7)C(=O)N(C7CCC(=O)NC7=O)C8=O)CC6)CC5)cn4)C[C@H]3C2)cc1Cl (stereo partly drawn) [Compound 303, N-((2s,3aR,5R,6aS)-5-(3-chloro-4-cyanophenoxy)octahydropenten-2-yl)-5-(4-((4-(2-(2,6-dioxopiperidin-3-yl)-1,3-dioxoisoindolin-5-yl)piperazin-1-yl)methyl)piperidin-1-yl)piperazine-2-carboxamide]	
50 to 79%	CC1(C)[C@H](NC(=O)c2ccc(N3CC4CN(CC5CN(c6cc7c(cc6F)C(=O)N(C6CCC(=O)NC6=O)C7=O)C5)CC4C3)nn2)C(C)(C)[C@H]1Oc1ccc(C#N)c(Cl)c1 (stereo partly drawn) [Compound 161, N-((1r,3r)-3-(3-chloro-4-cyanophenoxy)-2,2,4,4-tetramethylcyclobutyl)-6-(5-((1-(2-(2,6-dioxopiperidin-3-yl)-6-fluoro-1,3-dioxoisoindolin-5-yl)azelaic acid-3-yl)methyl)hexahydropyrrolo[3,4-c]pyrrol-2(1H)-pyrazole)formamide]	
< 25%	N#Cc1ccc(O[C@H]2CC[C@H](NC(=O)c3cnc(N4CCN([C@@H]5C[C@@H]6CN(c7ccc8c(c7)C(=O)N(C7CCC(=O)NC7=O)C8=O)C[C@@H]6C5)CC4)cn3)CC2)cc1Cl (stereo partly drawn) [Compound 296, N-((1r,4r)-4-(3-chloro-4-cyanophenoxy)cyclohexyl)-5-(4-((3aR,5R,6aS)-2-(2-(2,6-dioxopiperidin-3-yl)-1,3-dioxoisoindol-5-yl)octahydrocyclopenta [c]pyrrol-5-yl)piperazin-1-yl)pyrazine-2-carboxamide]	
50 to 79%	N#Cc1ccc(O[C@H]2CC[C@H](NC(=O)c3ccc(N4CCN(C[C@@H]5[C@H]6CN(c7ccc8c(c7)C(=O)N(C7CCC(=O)NC7=O)C8=O)C[C@@H]56)CC4)nn3)CC2)cc1Cl (stereo partly drawn) [Compound 102]	
25 to 49%	N#Cc1ccc(O[C@H]2CC[C@H](N3Cc4nc(C#CC5CCN(C6CCN(c7cc8c(cc7F)C(=O)N(C7CCC(=O)NC7=O)C8=O)CC6)CC5)ccc4C3=O)CC2)cc1Cl (stereo partly drawn) [Compound 324, 2-Chloro-4-((1r,4r)-4-(2-((1′-(2,6-dioxopiperidin-3-yl)-6-fluoro-1,3-dioxoisoindolin-5-yl)-1,4′-dipiperidine-4-yl)ethynyl)-5-oxo-5H-pyrrolo[3,4-b]pyridin-6(7H)-cyclohexaneoxy)benzonitrile]	
25 to 49%	CN(C1CCN(c2ccc3c(c2)C(=O)N(C2CCC(=O)NC2=O)C3=O)CC1)C1CC(C#Cc2ccc3c(n2)CN([C@H]2C(C)(C)[C@H](Oc4ccc(C#N)c(Cl)c4)C2(C)C)C3=O)C1 (stereo partly drawn) [Compound 331]	

Continued, compound first:

SMILES	inhibition at 0.1 µM	% degradation
N#Cc1ccc(O[C@H]2CC[C@H](NC(=O)c3ccc(N4CCC5(CC4)CN(C4CCN(c6ccc7c(c6)C(=O)N(C6CCC(=O)NC6=O)C7=O)CC4)C5)nn3)CC2)cc1Cl (stereo partly drawn) [Compound 74]	> 80%	
N#Cc1ccc(O[C@H]2CC[C@H](NC(=O)c3ccc(N4CCC(CN5CCC6(CCN(c7cc8c(cc7F)C(=O)N(C7CCC(=O)NC7=O)C8=O)C6)C5)CC4)nn3)CC2)cc1Cl (stereo partly drawn) [Compound 142, N-((1r,4r)-4-(3-chloro-4-cyanophenoxy)cyclohexyl)-6-(4-((7-(2-(2,6-dioxopiperidin-3-yl)-6-fluoro-1,3-dioxoisoindol-5-yl)-2,7-diazaspiro[4.4]nonan-2-yl)methyl)piperidin-1-yl)pyridazine-3-formamide]	> 80%	
N#Cc1ccc(O[C@H]2CC[C@H](NC(=O)c3ccc(N4CCC(N5CC6(CCN(c7cc8c(cc7F)C(=O)N(C7CCC(=O)NC7=O)C8=O)CC6)C5)CC4)nn3)CC2)cc1Cl (stereo partly drawn) [Compound 61, N-((1R,4R)-4-(3-chloro-4-cyanophenoxy)cyclohexyl)-6-(4-(7-(2-(2,6-dioxopiperidin-3-yl)-6-fluoro-1,3-dioxoisoindolin-5-yl)-2,7-diazaspiro[3.5]nonyl-2-yl)piperidin-1-yl)pyridazine-3-carboxamide]	> 80%	
N#Cc1ccc(O[C@H]2CC[C@H](NC(=O)c3ccc(N4CCC(N5CC6(CCN(c7cc8c(cc7F)C(=O)N(C7CCC(=O)NC7=O)C8=O)C6)C5)CC4)nn3)CC2)cc1Cl (stereo partly drawn) [Compound 103, N-((1r,4r)-4-(3-chloro-4-cyanophenoxy)cyclohexyl)-6-(4-(6-(2-(2,6-dioxopiperidin-3-yl)-6-fluoro-1,3-dioxoisoindolin-5-yl)-2,6-diazaspiro[3.4]octane-2-yl)piperidin-1-yl)pyridazine-3-formamide]	> 80%	
N#Cc1ccc(O[C@H]2CC[C@H](NC(=O)c3ccc(N4CC5CN(CC6CN(c7cc8c(cc7F)C(=O)N(C7CCC(=O)NC7=O)C8=O)C6)CC5C4)nn3)CC2)cc1Cl (stereo partly drawn) [Compound 160]	< 25%	
N#Cc1ccc(O[C@H]2CC[C@H](NC(=O)c3ccc(N4CC5CN(C[C@@H]6[C@H]7CN(c8ccc9c(c8)C(=O)N(C8CCC(=O)NC8=O)C9=O)C[C@@H]67)CC5C4)nn3)CC2)cc1Cl (stereo partly drawn) [Compound 100]	50 to 79%	
N#Cc1ccc(O[C@H]2CC[C@H](NC(=O)c3cnc(N4CC5CN(CC6CN(c7cc8c(cc7F)C(=O)N(C7CCC(=O)NC7=O)C8=O)C6)CC5C4)cn3)CC2)cc1Cl (stereo partly drawn) [Compound 159]	50 to 79%	
CC1(C)[C@H](Oc2ccc(C#N)c(Cl)c2)C(C)(C)[C@H]1N1Cc2nc(C#CC3CC(NC4CCN(c5ccc6c(c5)C(=O)N(C5CCC(=O)NC5=O)C6=O)CC4)C3)ccc2C1=O (stereo partly drawn) [Compound 327, 2-Chloro-4-((1r,3r)-3-(2-((3-(1-(2-(2,6-dioxopiperidin-3-yl)-1,3-dioxoisoindolin-5-yl)piperidine-4-ylamino)cyclobutyl)ethynyl)-5-oxo-5,7-dihydro-pyrrolo[3,4-b]pyridin-6-yl)-2,2,4,4-tetramethylcyclobutoxy)benzonitrile]	50 to 79%	
N#Cc1ccc(O[C@H]2CC[C@H](NC(=O)c3ccc(N4CCC(CN5CCC(Nc6cc7c(cc6F)C(=O)N(C6CCC(=O)NC6=O)C7=O)CC5)CC4)nn3)CC2)cc1Cl (stereo partly drawn) [Compound 139]	> 80%	
N#Cc1ccc(O[C@H]2CC[C@H](NC(=O)c3cnc(N4CCN(C(=O)O[C@H]5C[C@@H]6CN(c7ccc8c(c7)C(=O)N(C7CCC(=O)NC7=O)C8=O)C[C@@H]6C5)CC4)cn3)CC2)cc1Cl (stereo partly drawn) [Compound 301]	50 to 79%	
N#Cc1ccc(OC2CCC(NC(=O)c3ccc(N4C[C@H]5CC(N6CCN(c7cc8c(cc7F)C(=O)N(C7CCC(=O)NC7=O)C8=O)CC6)C[C@H]5C4)nn3)CC2)cc1Cl (stereo partly drawn) [Compound 292, N-((1s,4S)-4-(3-chloro-4-cyanophenoxy)cyclohexyl)-6-((3aR,5R,6aS)-5-(4-(2-(2,6-dioxopiperidin-3-yl)-6-fluoro-1,3-dioxoisoindolin-5-yl)piperazin-1-yl)hexahydrocyclopenta[c]pyrrole-2(1H)-yl)pyridazine-3-formamide]		D (<25%)
